According to patent US20150125889A1, “IN VITRO DETECTION OF MICROORGANISMS WITH AZOREDUCTASE ACTIVITY” (BIOMÉRIEUX, priority 2012, published 2015):

Key:
Experiment in all cases: Reduction of azo substrates over 24 hours at 35° C., microtitration plate (Example 1)
Format in all cases: cell-based
Candida albicans = system: Candida albicans; parameters: key to RED (substrate reduced or not): RED indicates whether the substrate is reduced (Y) or not (N); RED indicates whether the substrate is reduced (Y) or not (N); key to Co (growth, absorbance at 660 nm) / Decol (substrate decolourized, decrease in absorbance) / Fluo (fluorescence multiplied by 2 relative to substrate-free control): The symbol “+” means good growth/decolourization/significant increase in fluorescence; The symbol “+/−” means difficult growth; The symbol “−” means that there is no growth/decolourization/significant increase in fluorescence; conditions: substrate 35 mg/l
Procedure: (§1) Reduction of the “azo” function of the substrates listed in Table I by the species listed in Table II, each species being represented by a strain, is tested in a microtitration plate.
(§2) The reaction medium consists of: • Trypcase soya broth • Substrate 35 mg/l • 0.5 MacFarland inoculum
(§3) The reduction of the substrate and the growth of the microorganisms are monitored using an Infinite® M200 Tecan microplate reader at 35° C. over 24 hours.
(§4) The growth is monitored by the absorbance at 660 nm and the reduction of the substrates by absorbance and fluorescence at the specific wavelengths indicated in Table III.
(§5) The substrate is considered as reduced by the microorganisms when the substrate is decolourized (monitored by the decrease in absorbance) (Decol) and/or when the fluorescence of the substrate is multiplied by 2 relative to the base fluorescence of a substrate-free control (Fluo). The growth is indicated by Co. The symbol “+” means good growth/decolourization/significant increase in fluorescence. The symbol “+/−” means difficult growth. The symbol “−” means that there is no growth/decolourization/significant increase in fluorescence. RED indicates whether the substrate is reduced (Y) or not (N).

Cronobacter muytjensii = system: Cronobacter muytjensii; parameters: key to RED (substrate reduced or not): RED indicates whether the substrate is reduced (Y) or not (N); RED indicates whether the substrate is reduced (Y) or not (N); key to Co (growth, absorbance at 660 nm) / Decol (substrate decolourized, decrease in absorbance) / Fluo (fluorescence multiplied by 2 relative to substrate-free control): The symbol “+” means good growth/decolourization/significant increase in fluorescence; The symbol “+/−” means difficult growth; The symbol “−” means that there is no growth/decolourization/significant increase in fluorescence; conditions: E. muytjensii, substrate 35 mg/l
Procedure: as §1, §2, §3, §4, §5

Escherichia coli = system: Escherichia coli; parameters: key to RED (substrate reduced or not): RED indicates whether the substrate is reduced (Y) or not (N); RED indicates whether the substrate is reduced (Y) or not (N); key to Co (growth, absorbance at 660 nm) / Decol (substrate decolourized, decrease in absorbance) / Fluo (fluorescence multiplied by 2 relative to substrate-free control): The symbol “+” means good growth/decolourization/significant increase in fluorescence; The symbol “+/−” means difficult growth; The symbol “−” means that there is no growth/decolourization/significant increase in fluorescence; conditions: E. coli, substrate 35 mg/l
Procedure: as §1, §2, §3, §4, §5

Geotrichum candidum = system: Geotrichum candidum; parameters: key to RED (substrate reduced or not): RED indicates whether the substrate is reduced (Y) or not (N); RED indicates whether the substrate is reduced (Y) or not (N); key to Co (growth, absorbance at 660 nm) / Decol (substrate decolourized, decrease in absorbance) / Fluo (fluorescence multiplied by 2 relative to substrate-free control): The symbol “+” means good growth/decolourization/significant increase in fluorescence; The symbol “+/−” means difficult growth; The symbol “−” means that there is no growth/decolourization/significant increase in fluorescence; conditions: G. candidum, substrate 35 mg/l
Procedure: as §1, §2, §3, §4, §5

Kocuria rosea = system: Kocuria rosea; parameters: key to RED (substrate reduced or not): RED indicates whether the substrate is reduced (Y) or not (N); RED indicates whether the substrate is reduced (Y) or not (N); key to Co (growth, absorbance at 660 nm) / Decol (substrate decolourized, decrease in absorbance) / Fluo (fluorescence multiplied by 2 relative to substrate-free control): The symbol “+” means good growth/decolourization/significant increase in fluorescence; The symbol “+/−” means difficult growth; The symbol “−” means that there is no growth/decolourization/significant increase in fluorescence; conditions: K. rosea, substrate 35 mg/l
Procedure: as §1, §2, §3, §4, §5

Pseudomonas aeruginosa = system: Pseudomonas aeruginosa; parameters: key to RED (substrate reduced or not): RED indicates whether the substrate is reduced (Y) or not (N); RED indicates whether the substrate is reduced (Y) or not (N); key to Co (growth, absorbance at 660 nm) / Decol (substrate decolourized, decrease in absorbance) / Fluo (fluorescence multiplied by 2 relative to substrate-free control): The symbol “+” means good growth/decolourization/significant increase in fluorescence; The symbol “+/−” means difficult growth; The symbol “−” means that there is no growth/decolourization/significant increase in fluorescence; conditions: P. aeruginosa, substrate 35 mg/l
Procedure: as §1, §2, §3, §4, §5

Staphylococcus aureus = system: Staphylococcus aureus; parameters: key to RED (substrate reduced or not): RED indicates whether the substrate is reduced (Y) or not (N); RED indicates whether the substrate is reduced (Y) or not (N); key to Co (growth, absorbance at 660 nm) / Decol (substrate decolourized, decrease in absorbance) / Fluo (fluorescence multiplied by 2 relative to substrate-free control): The symbol “+” means good growth/decolourization/significant increase in fluorescence; The symbol “+/−” means difficult growth; The symbol “−” means that there is no growth/decolourization/significant increase in fluorescence; conditions: S. aureus, substrate 35 mg/l
Procedure: as §1, §2, §3, §4, §5

[1] = system: Staphylococcus epidermidis; parameters: key to RED (substrate reduced or not): RED indicates whether the substrate is reduced (Y) or not (N); RED indicates whether the substrate is reduced (Y) or not (N); key to Co (growth, absorbance at 660 nm) / Decol (substrate decolourized, decrease in absorbance) / Fluo (fluorescence multiplied by 2 relative to substrate-free control): The symbol “+” means good growth/decolourization/significant increase in fluorescence; The symbol “+/−” means difficult growth; The symbol “−” means that there is no growth/decolourization/significant increase in fluorescence; conditions: S. epidermidis, substrate 35 mg/l
Procedure: as §1, §2, §3, §4, §5

Acinetobacter baumanii = system: Acinetobacter baumanii; parameters: key to RED (substrate reduced or not): RED indicates whether the substrate is reduced (Y) or not (N); RED indicates whether the substrate is reduced (Y) or not (N); key to Decol (substrate decolourized, decrease in absorbance) / Fluo (fluorescence multiplied by 2 relative to substrate-free control) / Co (growth, absorbance at 660 nm): The symbol “+” means good growth/decolourization/significant increase in fluorescence; The symbol “+/−” means difficult growth; The symbol “−” means that there is no growth/decolourization/significant increase in fluorescence; conditions: A. baumannii, substrate 35 mg/l
Procedure: as §1, §2, §3, §4, §5

Enterococcus faecalis = system: Enterococcus faecalis; parameters: key to RED (substrate reduced or not): RED indicates whether the substrate is reduced (Y) or not (N); RED indicates whether the substrate is reduced (Y) or not (N); key to Decol (substrate decolourized, decrease in absorbance) / Fluo (fluorescence multiplied by 2 relative to substrate-free control) / Co (growth, absorbance at 660 nm): The symbol “+” means good growth/decolourization/significant increase in fluorescence; The symbol “+/−” means difficult growth; The symbol “−” means that there is no growth/decolourization/significant increase in fluorescence; conditions: E. faecalis, substrate 35 mg/l
Procedure: as §1, §2, §3, §4, §5

Structure (SMILES) | Co (growth, absorbance at 660 nm) (Candida albicans) | Decol (substrate decolourized, decrease in absorbance) (Candida albicans) | Fluo (fluorescence multiplied by 2 relative to substrate-free control) (Candida albicans) | RED (substrate reduced or not) (Candida albicans) | Co (growth, absorbance at 660 nm) (Cronobacter muytjensii) | Decol (substrate decolourized, decrease in absorbance) (Cronobacter muytjensii) | Fluo (fluorescence multiplied by 2 relative to substrate-free control) (Cronobacter muytjensii) | RED (substrate reduced or not) (Cronobacter muytjensii) | Co (growth, absorbance at 660 nm) (Escherichia coli) | Decol (substrate decolourized, decrease in absorbance) (Escherichia coli) | Fluo (fluorescence multiplied by 2 relative to substrate-free control) (Escherichia coli) | RED (substrate reduced or not) (Escherichia coli) | Co (growth, absorbance at 660 nm) (Geotrichum candidum) | Decol (substrate decolourized, decrease in absorbance) (Geotrichum candidum) | Fluo (fluorescence multiplied by 2 relative to substrate-free control) (Geotrichum candidum) | RED (substrate reduced or not) (Geotrichum candidum) | Co (growth, absorbance at 660 nm) (Kocuria rosea) | Decol (substrate decolourized, decrease in absorbance) (Kocuria rosea) | Fluo (fluorescence multiplied by 2 relative to substrate-free control) (Kocuria rosea) | Co (growth, absorbance at 660 nm) (Pseudomonas aeruginosa) | further results
O=C(O)c1ccccc1/N=N/c1cc(Br)c(O)c(Br)c1 [2-(4-hydroxy-3,5-dibromophenylazo)benzoic acid] | + | − | − | N | + | + | + | Y | + | − | + | Y | + | − | + | Y | − | − | − | + | Decol (substrate decolourized, decrease in absorbance) (Pseudomonas aeruginosa): −; Fluo (fluorescence multiplied by 2 relative to substrate-free control) (Pseudomonas aeruginosa): −; RED (substrate reduced or not) (Pseudomonas aeruginosa): N; Co (growth, absorbance at 660 nm) (Staphylococcus aureus): +; Decol (substrate decolourized, decrease in absorbance) (Staphylococcus aureus): +; Fluo (fluorescence multiplied by 2 relative to substrate-free control) (Staphylococcus aureus): +; RED (substrate reduced or not) (Staphylococcus aureus): Y; Co (growth, absorbance at 660 nm) [1]: +; Decol (substrate decolourized, decrease in absorbance) [1]: +/−; Fluo (fluorescence multiplied by 2 relative to substrate-free control) [1]: +; RED (substrate reduced or not) [1]: Y; Co (growth, absorbance at 660 nm) (Acinetobacter baumanii): +; Decol (substrate decolourized, decrease in absorbance) (Acinetobacter baumanii): −; Fluo (fluorescence multiplied by 2 relative to substrate-free control) (Acinetobacter baumanii): +; RED (substrate reduced or not) (Acinetobacter baumanii): Y; Co (growth, absorbance at 660 nm) (Enterococcus faecalis): +; Decol (substrate decolourized, decrease in absorbance) (Enterococcus faecalis): +; Fluo (fluorescence multiplied by 2 relative to substrate-free control) (Enterococcus faecalis): +; RED (substrate reduced or not) (Enterococcus faecalis): Y
Nc1ccc(/N=N/c2ccc(S(=O)(=O)O)cc2)cc1S(=O)(=O)O [4-aminoazobenzene-3,4′-disulfonic acid, 4-Aminoazobenzene-3,4′-disulfonic acid] | + | + | + | Y | + | − | − | N | + | − | − | N | + | − | − | N | − | − | − | + | Decol (substrate decolourized, decrease in absorbance) (Pseudomonas aeruginosa): −; Fluo (fluorescence multiplied by 2 relative to substrate-free control) (Pseudomonas aeruginosa): −; RED (substrate reduced or not) (Pseudomonas aeruginosa): N; Co (growth, absorbance at 660 nm) (Staphylococcus aureus): +; Decol (substrate decolourized, decrease in absorbance) (Staphylococcus aureus): −; Fluo (fluorescence multiplied by 2 relative to substrate-free control) (Staphylococcus aureus): −; RED (substrate reduced or not) (Staphylococcus aureus): N; Co (growth, absorbance at 660 nm) [1]: +; Decol (substrate decolourized, decrease in absorbance) [1]: −; Fluo (fluorescence multiplied by 2 relative to substrate-free control) [1]: −; RED (substrate reduced or not) [1]: N; Co (growth, absorbance at 660 nm) (Acinetobacter baumanii): +; Decol (substrate decolourized, decrease in absorbance) (Acinetobacter baumanii): −; Fluo (fluorescence multiplied by 2 relative to substrate-free control) (Acinetobacter baumanii): −; RED (substrate reduced or not) (Acinetobacter baumanii): N; Co (growth, absorbance at 660 nm) (Enterococcus faecalis): +; Decol (substrate decolourized, decrease in absorbance) (Enterococcus faecalis): +; Fluo (fluorescence multiplied by 2 relative to substrate-free control) (Enterococcus faecalis): +; RED (substrate reduced or not) (Enterococcus faecalis): Y
